This note sets out measurements from PubChem BioAssay AID1626 (SRMLSC, 2009).

The test deals with M. tuberculosis H37Rv growth inhibition. Put plainly: M. tuberculosis H37Rv growth inhibitors, H37Rv strain (AID 1626). The conditions noted are these: for IC90: measured here: IC90 against H37Rv; for CC50: measured here: Vero cell cytotoxicity.

Broadly, the IC90 is the concentration at which the effect reaches the 90% level. A high value points to weaker potency. As a reminder, the CC50 is the concentration that lowers cell viability or growth by half. One may read the IC50 as the concentration at which inhibition is half-maximal.

Molecule `Cn1nc(C(F)(F)F)c(-c2ccc(Br)cc2)c1NC(=O)c1cccnc1` came in with an IC90 greater than 100 µM and a CC50 greater than 40 µM.
For `O/C(=C\c1nc2ccccc2nc1/C=C(\O)c1ccccc1)c1ccccc1` the same measures were greater than 100 µM and greater than 40 µM.
Regarding `CCS(=O)(=O)Nc1ccc(-c2cc(-c3ccccc3)c3cc(C)ccc3n2)cc1`, the IC50 was 9.19 µM, the IC90 stood at 13.5 µM and the CC50 is 34.7 µM.
With `COc1ccc2nc(SCC(=O)Nc3ccc4c(c3)CCC4)[nH]c2c1`, the half-inhibitory concentration (IC50) was 15.6 µM and the IC90 is greater than 100 µM.
On to `CCn1c(NC(=O)c2cccc(Cn3cc(Cl)cn3)c2)nc2ccccc21`, for which the IC50 is 3.65 µM, the IC90 was greater than 100 µM and the half-maximal cytotoxic concentration (CC50) was greater than 40 µM.
For the molecule `CN(C)CCNC=C(C(=O)Nc1ccc(Cl)cc1Cl)C(=O)Nc1ccc(Cl)cc1Cl`, the half-inhibitory concentration (IC50) is 2.45 µM, the IC90 stood at 3.44 µM and the half-maximal cytotoxic concentration (CC50) worked out at 18.1 µM.
For `COc1ccccc1-c1nc(-c2ccccc2)nc(N2CCN(C)CC2)c1C#N` the same measures were 16.5 µM, 22 µM and greater than 40 µM.
Regarding `CCOC(=O)COc1ccc2c(=O)c(-c3ccccc3)coc2c1`, the IC50 was less than 0.195 µM and the 90% effect concentration (IC90) amounted to 0.755 µM.
In the case of `C/C=C/c1ccc(OCC(=O)OCc2csc(Nc3ccc(C)cc3)n2)c(OC)c1`, the IC50 was 3.83 µM and the IC90 stood at 8.62 µM.
With `Cc1c(C(=O)N2CCCCC2)sc(NC(=O)C23CC4CC(CC(C4)C2)C3)c1C#N`, the half-maximal inhibitory concentration (IC50) is 40.8 µM and the concentration for an effect of 90% (IC90) is greater than 100 µM.
Turning to `COc1ccc(CCNC(=O)c2ccc(CN3CCC(Cc4ccccc4)CC3)cc2)cc1`, the concentration for an effect of 90% (IC90) was greater than 100 µM and the 50% cytotoxic concentration (CC50) is greater than 40 µM.
In the case of `Cc1ccc2nc(-c3cccc(N)c3)oc2c1`, the IC50 is 12.7 µM, the concentration for an effect of 90% (IC90) is greater than 100 µM and the cytotoxic concentration (CC50) was greater than 40 µM.
For `Clc1ccc(SCc2cc(N3CCOCC3)nc(-c3ccccn3)n2)cc1` the same measures were 8.83 µM, 41.6 µM and 12.2 µM.
As to `COc1ccc(NC(C)c2cc(Cl)ccc2O)cc1` (stereo not drawn), the IC90 is greater than 100 µM.
`Cc1ccc(C2=Nc3ccccc3SC(c3cccc([N+](=O)[O-])c3)C2)cc1` (stereo not drawn): the concentration for half-maximal inhibition (IC50) was 3.71 µM, the 90% effect concentration (IC90) came out at 5.74 µM and the CC50 worked out at 33 µM.
As for `Cc1oc2ccc(OC(=O)c3cccs3)cc2c1C(=O)OC(C)C`, the IC50 was 2.84 µM and the concentration for an effect of 90% (IC90) was found to be 21.3 µM.
In the case of `Cc1cc(Nc2ccccc2)n(-c2nc3ccccc3[nH]2)n1`, the IC50 is less than 0.195 µM, the IC90 worked out at 3.18 µM and the half-maximal cytotoxic concentration (CC50) is greater than 40 µM.
Regarding `O=C(Nc1ccc2oc(-c3cccnc3)nc2c1)c1ccc([N+](=O)[O-])o1`, the IC50 is less than 0.195 µM, the concentration for an effect of 90% (IC90) was greater than 100 µM and the CC50 is 1.32 µM.
With `O=C(Nc1ccc(N2CCN(C(=O)c3ccccc3)CC2)cc1)c1ccc([N+](=O)[O-])o1`, the IC50 was less than 0.195 µM, the IC90 is less than 0.195 µM and the CC50 was determined as 1.63 µM.
In the case of `Cc1cnc(C(=O)Nc2nnc(SCc3c(Cl)cccc3Cl)s2)cn1`, the IC50 is 8.19 µM, the IC90 is greater than 100 µM and the CC50 came to 35.5 µM.
For `O=C(CCl)Nc1cn(-c2ccccc2)nc1-c1ccccc1` the same measures were 9.87 µM, 38.6 µM and 9.49 µM.
The matching figures for `NC1=NC[C@H](Cc2ccccc2)N1CCCCC1CCCCC1`: 10 µM, 13.6 µM and greater than 40 µM.
The matching figures for `O=C(Nc1ccccc1Cl)Oc1ccc(-c2ccccc2)cc1`: 59.5 µM, greater than 100 µM and greater than 40 µM.
Take `Cc1nnc(NC(=O)c2ccc3ccccc3n2)s1`: the half-inhibitory concentration (IC50) was 42.5 µM, the IC90 was greater than 100 µM and the CC50 was greater than 40 µM.
The molecule `CC(C)(C)C(=O)/C=c1\s/c(=C\c2ccc(-c3ccc([N+](=O)[O-])cc3)o2)c(=O)n1CC(=O)NC(N)=O` had an IC90 greater than 100 µM and a CC50 greater than 40 µM.
For the molecule `Cc1cc(Cl)n2ncc(-c3ccccc3)c2n1`, the half-maximal inhibitory concentration (IC50) was 58.1 µM, the IC90 was greater than 100 µM and the 50% cytotoxic concentration (CC50) is greater than 40 µM.
For `CC(C)(C)c1ccc(C(=O)NCCCN2CCN(CCCNC(=O)c3ccc(C(C)(C)C)cc3)CC2)cc1` the same measures were 5.43 µM, 7.12 µM and 27.4 µM.
The matching figures for `CCOC(=O)c1ccc(NC(=O)CCc2nc(-c3ccc(C)cc3)no2)cc1`: 1.36 µM, 12.4 µM and greater than 40 µM.
For `COC(=O)COc1ccc(-c2ccc(F)cc2)cc1C=O`, the half-inhibitory concentration (IC50) was 5.69 µM and the IC90 was found to be 9.92 µM.
The matching figures for `O=c1oc2ccccc2nc1/C=C(O)/C=C\c1ccccc1`: 4.33 µM and 13.1 µM.
As to `COc1ccc(C(=O)Oc2cccc3cccnc23)cc1[N+](=O)[O-]`, the IC50 was 4.12 µM, the IC90 was 4.93 µM and the CC50 was 39 µM.
The matching figures for `COc1ccc(-c2nnc(NC(=O)c3ccccc3C)o2)cc1`: 0.944 µM, greater than 100 µM and greater than 40 µM.
As to `COC(=O)CSc1cc(SCC(=O)OC)c(C#N)c(SCC(=O)OC)c1`, the IC50 is 0.785 µM and the concentration for an effect of 90% (IC90) was determined as 2.61 µM.
`Cc1nc(-c2ccccn2)nc(SCC(=O)c2ccccc2)c1Cl`: the concentration for half-maximal inhibition (IC50) was 3.68 µM, the IC90 was 6.49 µM and the CC50 was greater than 40 µM.
For `CCN1CCN(Cc2ccc(NC(=O)c3ccc(C)c(NC(=O)c4cc(-c5ccc(Br)cc5)n[nH]4)c3)cc2C(F)(F)F)CC1`, the concentration for half-maximal inhibition (IC50) was 2.16 µM, the concentration for an effect of 90% (IC90) is 2.85 µM and the cytotoxic concentration (CC50) stood at 13 µM.
Regarding `CCCCOC(=O)c1ccc(NC(=O)C(=O)NCCN(C)C)cc1`, the concentration for half-maximal inhibition (IC50) is 14.9 µM and the IC90 is greater than 100 µM.
For `O=C(c1ccc(CNc2c(N3CCCC3)c(=O)c2=O)cc1)N1CC=C(c2ccccc2)CC1` the same measures were 26.2 µM and greater than 100 µM.
Consider `CCCCCCC(=O)Nc1nc(C)c(-c2csc(Nc3ccccc3OC)n2)s1`, for which the IC50 was 5.48 µM, the IC90 was 9.63 µM and the half-maximal cytotoxic concentration (CC50) is greater than 40 µM.
Turning to `COc1cccc(CNCCc2c[nH]c3ccccc23)c1OCc1ccccc1F`, the IC50 is 7.08 µM, the 90% effect concentration (IC90) is 11.3 µM and the cytotoxic concentration (CC50) worked out at 14.4 µM.
With `Cc1ccc(C(O)(c2ccccc2)c2ccccc2C(C)N(C)C)c(C)c1` (stereo not drawn), the IC50 was 11.7 µM, the concentration for an effect of 90% (IC90) was found to be 19.9 µM and the CC50 worked out at 39 µM.
The matching figures for `CCOC(=O)c1c(-c2ccccc2)csc1NC(=O)c1cc2ccccc2oc1=O`: less than 0.195 µM, 0.623 µM and greater than 40 µM.
The matching figures for `O=C(COc1ccc(Cl)cc1Cl)N1CCN(C/C=C/c2ccccc2)CC1`: 17 µM, 21.6 µM and greater than 40 µM.
For `Nc1[nH]n2c(=O)c3c(nc2c1N=Nc1ccc(Cl)cc1)CCCC3` the same measures were 10.7 µM, 21.5 µM and 25.4 µM.
As to `CCCc1cc(-c2nc(-c3ccc(C)cc3)cs2)ccn1`, the IC50 was 7.61 µM, the IC90 was found to be 22.2 µM and the CC50 was greater than 40 µM.
The matching figures for `COc1cc(CNCc2ccccn2)ccc1OCc1ccc(Cl)cc1Cl`: 6.04 µM, 9.96 µM and greater than 40 µM.
For `O=C(COc1ccc(Cl)cc1)Nc1nnc(-c2ccc3c(c2)CCCC3)o1` the same measures were 54.3 µM, greater than 100 µM and greater than 40 µM.
For `CC(=O)CC1(OC(C)=O)C(=O)N(C)c2ccccc21` (stereo not drawn) the same measures were 5.34 µM, 5.89 µM and 24.3 µM.
As for `CCCOC(=O)c1ccc(NC(=O)CCC(=O)OCC)cc1`, the 50% inhibitory concentration (IC50) was less than 0.195 µM and the concentration for an effect of 90% (IC90) is greater than 100 µM.
As for `CSc1nc2ccc(NS(=O)(=O)c3cccc(Cl)c3Cl)cc2s1`, the 90% effect concentration (IC90) was greater than 100 µM.
Turning to `CCCCCCCn1c(NC(=O)CC)nc2ccccc21`, the half-inhibitory concentration (IC50) was less than 0.195 µM, the IC90 was found to be 1.58 µM and the CC50 stood at 29.2 µM.
For `CC(=O)OCCCNc1cc(Sc2nc3ccccc3s2)c2nonc2c1[N+](=O)[O-]` the same measures were 7.74 µM, 10.1 µM and 16.3 µM.
In the case of `Cc1nnc(NC(=O)c2ccc3ccccc3c2)o1`, the IC50 is 0.719 µM, the concentration for an effect of 90% (IC90) was 1.46 µM and the half-maximal cytotoxic concentration (CC50) was greater than 40 µM.
On to `CCCc1cc(=O)[nH]c(SCC(=O)Nc2nc3ccc(OCC)cc3s2)n1`, for which the CC50 is greater than 40 µM.
Turning to `N=C1/C(=C/c2ccc(OC(=O)c3ccco3)cc2)C(=O)N=C2SC=CN12`, the IC90 is greater than 100 µM.
The molecule `Cc1ccccc1-n1c(O)c(C=Nc2ccc3c(c2)OCO3)c(=O)[nH]c1=O` registered an IC90 greater than 100 µM.
Consider `CN(C)CCCNc1cc(C(C)(C)C)nc2c(-c3ccc(Cl)cc3)cnn12`, for which the IC50 was 0.874 µM, the concentration for an effect of 90% (IC90) was found to be 1.37 µM and the CC50 amounted to 9.25 µM.
As for `O=C(COc1ccc2ccccc2c1)Nc1nccs1`, the IC90 is greater than 100 µM.
Consider `O=C1c2cccc3c(N4CCOCC4)c([N+](=O)[O-])cc(c23)C(=O)N1c1cccc2ccccc12`, for which the half-inhibitory concentration (IC50) is 5.97 µM, the concentration for an effect of 90% (IC90) came to 6.82 µM and the 50% cytotoxic concentration (CC50) was greater than 40 µM.
In turn, `COC(=O)c1ccc(NC(=O)CSC2=NCCN2)cc1` had a 90% effect concentration (IC90) greater than 100 µM.
Consider `COc1ccc(-n2c(C)nc3sc4c(c3c2=O)CCCC4)cc1`, for which the IC50 is 11.7 µM and the IC90 was 13.3 µM.
As for `O=C(Nc1ccc(-n2nncc2-c2ccco2)cc1)c1cc2ccccc2oc1=O`, the half-maximal inhibitory concentration (IC50) is 1.96 µM, the 90% effect concentration (IC90) came out at 6.68 µM and the half-maximal cytotoxic concentration (CC50) came out at 19.7 µM.
With `O=C(C[n+]1cc(-c2ccccc2)n2c1CCC2)N1c2ccccc2Sc2ccccc21`, the IC50 was 22.5 µM and the 90% effect concentration (IC90) is greater than 100 µM.
Regarding `Oc1c(Cl)cc(Cl)c2cccnc12`, the half-maximal inhibitory concentration (IC50) was 0.779 µM, the IC90 turned out to be 0.858 µM and the cytotoxic concentration (CC50) was 11.9 µM.
